Reference: patent US4740517A, “Antidiabetic spiro-3-heteroazolidines” (Sanwa Kagaku Kenyusho Co., Ltd., priority 1985, dated 1988)

Key:
aldose reductase enzyme = molecular target: T1, aldose reductase enzyme (Rattus norvegicus, UniProt P07943); assay: inhibition of aldose reductase enzyme activity using water-soluble extracts of rat lenses (Kador and Sharpless procedure); format: biochemical; conditions: for inhibition at 10 µM: 10^-5 M; for inhibition at 1 µM: 10^-6 M; for inhibition at 0.1 µM: 10^-7 M; for IC50: read-out: IC50 (concentration of inhibitor which gives 50% inhibition)
T1 construct: Using water-soluble extracts of rat lenses; from tissue; host or cells: rat lens, water-soluble extract
Method: Using water-soluble extracts of rat lenses, the inhibitions of these compounds were determined.

[1] = tested on: polyol increase in sciatic nerve of galactosemic rats; assay: reduction or inhibition of polyol (galactitol) increase in sciatic nerve of galactosemic rats; format: in vivo, rat; conditions: for Percent Inhibition (%) as compared to galactitol increase of the control animals: rats, 30% galactose diet, oral 10 mg/kg once a day for 8 days, sciatic nerve removed on 9th day
Method: Some spiro-3-heteroazolidine compounds according to the invention were tested to evaluate their ability on reduction or inhibition of polyol increase in sciatic nerve of galactosemic rats. To the rats, 30% galactose diet was fed and said compounds were orally administered at a dose of 10 mg/kg once a day for a period of 8 days. Control animals were received the galactose diet and were administered no such compound. One day after final administration (on 9th day from the first administration), sciatic nerves were removed for galactitol determination.

[2] = read-out: Percent Inhibition (%) of aldose reductase enzyme activity

`CN(C)C(=O)C1CC2(NC(=O)NC2=O)c2cc(F)ccc2O1` (stereo not drawn) [Example 5, 6-Fluoro-2,3-dihydro-N,N-dimethyl-2',5'-dioxo-spiro[4H-1-benzopyran-4,4'-imidazolidine]-2-carboxamide] showed an inhibition at 10 µM (aldose reductase enzyme; [2]) of 61%, an inhibition at 1 µM (aldose reductase enzyme; [2]) of 29% and an inhibition at 0.1 µM (aldose reductase enzyme; [2]) of 10%. For the same compound, the IC50 (aldose reductase enzyme) was 5 µM, the “Percent Inhibition (%) as compared to galactitol increase of the control animals” value [1] was 70% and the “inhibition of polyol accumulation in sciatic nerve (in words)” value [1] was “excellent”.

`NC(=O)C1CC2(NC(=O)NC2=O)c2cc(F)ccc2O1` (stereo not drawn) [Example 2, 6-Fluoro-2,3-dihydro-2',5'-dioxo-spiro[4H-1-benzopyran-4,4'-imidazolidine]-2-carboxamide] showed an inhibition at 10 µM (aldose reductase enzyme; [2]) of 93%, an inhibition at 1 µM (aldose reductase enzyme; [2]) of 85% and an inhibition at 0.1 µM (aldose reductase enzyme; [2]) of 15%. For the same compound, the IC50 (aldose reductase enzyme) was 0.4 µM, the “Percent Inhibition (%) as compared to galactitol increase of the control animals” value [1] was 85% and the “inhibition of polyol accumulation in sciatic nerve (in words)” value [1] was “excellent”.

`COc1ccc(NC(=O)C2CC3(NC(=O)NC3=O)c3cc(F)ccc3O2)cc1` (stereo not drawn) [Example 8, 6-Fluoro-2,3-dihydro-N-(4-methoxyphenyl)-2',5'-dioxo-spiro[4H-1-benzopyran-4,4'-imidazolidine]-2-carboxamide] showed an inhibition at 10 µM (aldose reductase enzyme; [2]) of 81%, an inhibition at 1 µM (aldose reductase enzyme; [2]) of 81% and an inhibition at 0.1 µM (aldose reductase enzyme; [2]) of 65%. For the same compound, the inhibition at 0.01 µM (aldose reductase enzyme; 10^-8 M, read-out: Percent Inhibition (%) of aldose reductase enzyme activity) was 14%, the IC50 (aldose reductase enzyme) was 0.07 µM and the “Percent Inhibition (%) as compared to galactitol increase of the control animals” value [1] was 26%.

Work on `CNC(=O)C1CC2(NC(=O)NC2=O)c2cc(F)ccc2O1` (stereo not drawn) [Example 3, 6-Fluoro-2,3-dihydro-N-methyl-2',5'-dioxo-spiro[4H-1-benzopyran-4,4'-imidazolidine]-2-carboxamide] yielded an inhibition at 10 µM (aldose reductase enzyme; [2]) of 71%, an inhibition at 1 µM (aldose reductase enzyme; [2]) of 78% and an inhibition at 0.1 µM (aldose reductase enzyme; [2]) of 26%. For the same compound, the IC50 (aldose reductase enzyme) was 0.5 µM and the “Percent Inhibition (%) as compared to galactitol increase of the control animals” value [1] was 31%.

`O=C1NC(=O)C2(CC(CCl)Oc3ccc(F)cc32)N1` (stereo not drawn) [Example 13, 2-Chloromethyl-6-fluoro-2,3-dihydro-spiro[4H-1-benzopyran-4,4'-imidazolidine]-2',5'-dione] was tested, and the inhibition at 10 µM (aldose reductase enzyme; [2]) was 90%, the inhibition at 1 µM (aldose reductase enzyme; [2]) was 51% and the inhibition at 0.1 µM (aldose reductase enzyme; [2]) was 3%. The IC50 (aldose reductase enzyme) was 1 µM and the “Percent Inhibition (%) as compared to galactitol increase of the control animals” value [1] was 88%.

`O=C1NC(=O)C2(CC(CO)Oc3ccc(F)cc32)N1` (stereo not drawn) [Example 12, 6-Fluoro-2,3-dihydro-2-hydroxymethyl-spiro[4H-1-benzopyran-4,4'-imidazolidine]-2',5'-dione] gave an inhibition at 10 µM (aldose reductase enzyme; [2]) of 85%, an inhibition at 1 µM (aldose reductase enzyme; [2]) of 28% and an inhibition at 0.1 µM (aldose reductase enzyme; [2]) of 13%. For the same compound, the IC50 (aldose reductase enzyme) was 4 µM and the “Percent Inhibition (%) as compared to galactitol increase of the control animals” value [1] was 40%.

Work on `O=C1NC(=O)C2(CC(C(=O)O)Oc3ccc(F)cc32)N1` (stereo not drawn) [Example 1, 6-Fluoro-2,3-dihydro-2',5'-dioxo-spiro[4H-1-benzopyran-4,4'-imidazolidine]-2-carboxylic acid] yielded an inhibition at 10 µM (aldose reductase enzyme; [2]) of 77%, an inhibition at 1 µM (aldose reductase enzyme; [2]) of 47% and an inhibition at 0.1 µM (aldose reductase enzyme; [2]) of 9%. For the same compound, the IC50 (aldose reductase enzyme) was 6 µM, the “ability to reduce or inhibit polyol increase in sciatic nerve of galactosemic rats, potency of diastereoisomers” value ([1]; major versus minor diastereoisomer of Example 1) was “greater than that of the minor diastereoisomer” and the “Percent Inhibition (%) as compared to galactitol increase of the control animals” value [1] was 36%.
